Data published in ChEMBL document CHEMBL5126522, “In vitro and in vivo evaluation of 211At-labeled fibroblast activation protein inhibitor for glioma treatment” (Bioorg Med Chem, 2022).

Legend:
[1] = Toxicity in BALB/c nude mouse xenografted with human U-87 MG cells assessed as change in body weight at 0.18 to 0.55 MBq, it; settings: other, dose 0.18-0.55 MBq
[2] = Drug uptake in tumor of BALB/c nude mouse xenografted with human U-87 MG cells at 0.3 MBq, iv measured after 0.5 hrs by gamma-counting analysis; assay type: ADME, organism-based, Neoplasm; settings: in vivo
[3] = Inhibition of colony formation in human U-87 MG cells assessed as survival fraction at 4.6 kBq incubated in radioactive medium for 12 hrs followed by incubation in non-radioactive medium for 14 days by crystal violet staining based analysis; assay type: functional, U-87MG ATCC; settings: time 852 hrs
[4] = Anti-tumor activity against human U-87 MG cells xenografted in BALB/c nude mouse assessed as reduction in tumor volume at 0.55 MBq, it measured on day 15 by electronic caliper analysis; assay type: functional, U-87MG ATCC; settings: time 15 day
[5] = Toxicity in BALB/c nude mouse xenografted with human U-87 MG cells assessed as stomach morphological changes at 0.55 MBq, it measured after 2 to 12 days by Hematoxylin-Eosin staining based analysis; assay type: tissue-based; settings: other, time 2-12 day
[6] = Drug uptake in FAP-positive human U-87 MG cells assessed as binding rate pretreated with excess standard products measured after 60 mins; assay type: ADME, cell-based; settings: u-87mg atcc, 1 h
[7] = Drug uptake in kidney of BALB/c nude mouse xenografted with human U-87 MG cells at 0.3 MBq, it measured after 0.5 hrs by gamma-counting analysis; assay type: ADME, tissue-based; settings: other
[8] = Hepatotoxicity BALB/c nude mouse xenografted with human U-87 MG cells assessed as change in serum ALT level at 0.55 MBq, it measured after 2 to 12 days; assay type: toxicity; settings: other, time 2-12 day
[9] = Induction of cell cycle arrest in human U-87 MG cells assessed as proportion of cells at G0/G1 phase at 23 kBq incubated in radioactive medium for 12 hrs followed by incubation in non-radioactive medium for 24 hrs by PI staining based flow cytometry (reference value: 69.9 +/-3.76%); assay type: functional, U-87MG ATCC; settings: time 36 hrs
[10] = Drug uptake in tumor of BALB/c nude mouse xenografted with human U-87 MG cells at 0.3 MBq, it measured after 6 hrs by gamma-counting analysis; assay type: ADME, Neoplasm; settings: other
[11] = Toxicity in BALB/c nude mouse xenografted with human U-87 MG cells assessed as kidney morphological changes at 0.55 MBq, it measured after 2 to 12 days by Hematoxylin-Eosin staining based analysis; assay type: tissue-based; settings: other, time 2-12 day
[12] = Renal toxicity BALB/c nude mouse xenografted with human U-87 MG cells assessed as change in BUN level at 0.55 MBq, it measured after 2 to 12 days; settings: other, time 2-12 day
[13] = Drug uptake in FAP-positive human U-87 MG cells assessed as binding rate measured for 4 hrs; assay type: ADME, cell-based; settings: u-87mg atcc
[14] = Cytotoxicity against human U-87 MG cells assessed as cell viability at 92 kBq incubated in radioactive medium for 12 hrs followed by incubation in non-radioactive medium for 24 hrs by CCK8 assay; assay type: functional, U-87MG ATCC; settings: time 36 hrs
[15] = Drug uptake in kidney of BALB/c nude mouse xenografted with human U-87 MG cells at 0.3 MBq, iv measured after 0.5 hrs by gamma-counting analysis; assay type: ADME, organism-based; settings: in vivo
[16] = Drug uptake in tumor of BALB/c nude mouse xenografted with human U-87 MG cells at 0.3 MBq, it measured after 0.5 hrs by gamma-counting analysis; assay type: ADME, tissue-based, Neoplasm; settings: other
[17] = Drug uptake in stomach of BALB/c nude mouse xenografted with human U-87 MG cells at 0.3 MBq, iv by gamma-counting analysis; assay type: ADME, organism-based; settings: in vivo
[18] = Antitumor activity against human U-87 MG cells xenografted in BALB/c nude mouse assessed as proportion of TUNEL-positive cells in tumor at 0.55 MBq, it measured after 12 days by immunohistochemical analysis (reference value: 3.31 +/-1.13%); assay type: functional, U-87MG ATCC; settings: time 12 day
[19] = Drug uptake in tumor of BALB/c nude mouse xenografted with human U-87 MG cells at 0.3 MBq, it measured after 2 hrs by gamma-counting analysis; assay type: ADME, tissue-based, Neoplasm; settings: other
[20] = Anti-tumor activity against human U-87 MG cells xenografted in BALB/c nude mouse assessed as median survival time at 0.55 MBq, it (reference value: 16.5 days); assay type: functional, U-87MG ATCC
[21] = Drug uptake in thyroid of BALB/c nude mouse xenografted with human U-87 MG cells at 0.3 MBq, it by gamma-counting analysis; assay type: ADME, tissue-based, Thyroid gland; settings: other
[22] = Antitumor activity against human U-87 MG cells xenografted in BALB/c nude mouse assessed as proportion of TUNEL-positive cells in tumor at 0.55 MBq, it measured after 2 days by immunohistochemical analysis (reference value: 3.54 +/-2.71%); assay type: functional, U-87MG ATCC; settings: time 2 day
[23] = Drug uptake in thyroid of BALB/c nude mouse xenografted with human U-87 MG cells at 0.3 MBq, iv by gamma-counting analysis; assay type: ADME, organism-based, Thyroid gland; settings: in vivo
[24] = Ratio of drug level in tumor to muscle in BALB/c nude mouse xenografted with human U-87 MG cells at 0.3 MBq, it measured after 2 hrs by gamma-counting analysis; assay type: ADME, tissue-based; settings: other
[25] = Ratio of drug level in tumor to kidney in BALB/c nude mouse xenografted with human U-87 MG cells at 0.3 MBq, it measured after 2 hrs by gamma-counting analysis; assay type: ADME, tissue-based; settings: other
[26] = Anti-tumor activity against human U-87 MG cells xenografted in BALB/c nude mouse assessed as reduction in tumor volume at 0.18 MBq, it measured on day 15 by electronic caliper analysis; assay type: functional, U-87MG ATCC
[27] = Drug uptake in stomach of BALB/c nude mouse xenografted with human U-87 MG cells at 0.3 MBq, it by gamma-counting analysis; assay type: ADME; settings: other
[28] = Drug uptake in liver of BALB/c nude mouse xenografted with human U-87 MG cells at 0.3 MBq, iv measured after 0.5 hrs by gamma-counting analysis; assay type: ADME, organism-based; settings: in vivo
[29] = Toxicity in BALB/c nude mouse xenografted with human U-87 MG cells assessed as thyroid morphological changes at 0.55 MBq, it measured after 2 to 12 days by Hematoxylin-Eosin staining based analysis; settings: other, time 2-12 day
[30] = Induction of cell cycle arrest in human U-87 MG cells assessed as proportion of cells at G2/M phase at 23 kBq incubated in radioactive medium for 12 hrs followed by incubation in non-radioactive medium for 24 hrs by PI staining based flow cytometry (reference value: 15.7 +/-3.61%); assay type: functional, U-87MG ATCC; settings: time 36 hrs
[31] = Drug uptake in FAP-positive human U-87 MG cells assessed as binding rate measured after 60 mins; assay type: ADME, cell-based; settings: u-87mg atcc, 1 h
[32] = Antitumor activity against human U-87 MG cells xenografted in BALB/c nude mouse assessed as Ki67 expression in tumor at 0.55 MBq, it measured after 2 days by immunohistochemical analysis (reference value: 49.8 +/-7.67%); assay type: functional, U-87MG ATCC; settings: time 2 day
[33] = Drug uptake in FAP-positive human U-87 MG cells assessed as binding rate measured after 10 mins; assay type: ADME, cell-based; settings: u-87mg atcc
[34] = Ratio of drug level in tumor to blood in BALB/c nude mouse xenografted with human U-87 MG cells at 0.3 MBq, it measured after 2 hrs by gamma-counting analysis; assay type: ADME, tissue-based; settings: other
[35] = Anti-tumor activity against human U-87 MG cells xenografted in BALB/c nude mouse assessed as median survival time at 0.18 MBq, it (reference value: 16.5 days); assay type: functional, U-87MG ATCC
[36] = Inhibition of colony formation in human U-87 MG cells assessed as survival fraction at 9.2 kBq incubated in radioactive medium for 12 hrs followed by incubation in non-radioactive medium for 14 days by crystal violet staining based analysis; assay type: functional, U-87MG ATCC; settings: time 852 hrs
[37] = Toxicity in BALB/c nude mouse xenografted with human U-87 MG cells assessed as liver morphological changes at 0.55 MBq, it measured after 2 to 12 days by Hematoxylin-Eosin staining based analysis; assay type: tissue-based; settings: other, time 2-12 day
[38] = Ratio of drug level in tumor to liver in BALB/c nude mouse xenografted with human U-87 MG cells at 0.3 MBq, it measured after 2 hrs by gamma-counting analysis; assay type: ADME, tissue-based; settings: other
[39] = Inhibition of colony formation in human U-87 MG cells assessed as survival fraction at 18.5 kBq incubated in radioactive medium for 12 hrs followed by incubation in non-radioactive medium for 14 days by crystal violet staining based analysis; assay type: functional, U-87MG ATCC
[40] = Drug uptake in tumor of BALB/c nude mouse xenografted with human U-87 MG cells at 0.3 MBq, iv measured after 2 hrs by gamma-counting analysis; assay type: ADME, organism-based, Neoplasm; settings: in vivo
[41] = Drug uptake in tumor of BALB/c nude mouse xenografted with human U-87 MG cells at 0.3 MBq, iv measured after 6 hrs by gamma-counting analysis; assay type: ADME, organism-based, Neoplasm; settings: in vivo
[42] = Anti-tumor activity against human U-87 MG cells xenografted in BALB/c nude mouse assessed as median survival time at 0.37 MBq, it (reference value: 16.5 days); assay type: functional, U-87MG ATCC
[43] = Anti-tumor activity against human U-87 MG cells xenografted in BALB/c nude mouse assessed as reduction in tumor volume at 0.37 MBq, it measured on day 15 by electronic caliper analysis; assay type: functional, U-87MG ATCC
[44] = Stability of the compound in serum (unknown origin) measured after 24 hrs by iTLC analysis; assay type: ADME, cell-free; settings: read-out: Stability
[45] = Drug uptake in liver of BALB/c nude mouse xenografted with human U-87 MG cells at 0.3 MBq, it measured after 0.5 hrs by gamma-counting analysis; assay type: ADME, tissue-based; settings: other
[46] = Stability of the compound in saline measured after 24 hrs by iTLC analysis; assay type: physicochemical; settings: read-out: Stability
[47] = Cytotoxicity against human U-87 MG cells assessed as cell viability at 12 kBq incubated in radioactive medium for 12 hrs followed by incubation in non-radioactive medium for 24 hrs by CCK8 assay; assay type: functional, U-87MG ATCC; settings: time 36 hrs
[48] = Drug uptake in FAP-negative human MCF7 cells assessed as binding rate measured after 10 to 240 mins; assay type: ADME, cell-based; settings: time 10-240 min

N#C[C@@H]1CC(F)(F)CN1C(=O)CNC(=O)c1ccnc2ccc(OCCCN3CCN(C(=O)c4ccc([211At])cc4)CC3)cc12
Activity [1]: Non-Toxic
Drug uptake [2]: 4.04 % ID/g
Activity [3]: 28.1%
inhibition (INH) [4]: 76%
Activity [5]: Non-Toxic
Drug uptake [6]: 9.3%
Drug uptake [7]: Active
Activity [8]: Non-Toxic
Activity [9]: 21.9%
Drug uptake [10]: 11.47 % ID/g
Activity [11]: Non-Toxic
Activity [12]: Non-Toxic
Drug uptake [13]: Active
Activity [14]: 42.1%
Drug uptake [15]: Active
Drug uptake [16]: 132.5 % ID/g
Drug uptake [17]: Active
Activity [18]: 28.5%
Drug uptake [19]: 19.24 % ID/g
Survival [20]: 33 days
Drug uptake [21]: Active
Activity [22]: 28.7%
Drug uptake [23]: Active
Ratio [24]: 45.75
Ratio [25]: 6.39
inhibition (INH) [26]: 55%
Drug uptake [27]: Active
Drug uptake [28]: Active
Activity [29]: Non-Toxic
Activity [30]: 62.7%
Drug uptake [31]: 24.9%
Activity [32]: 17.9%
Drug uptake [33]: 14.4%
Ratio [34]: 14.17
Survival [35]: 24 days
Activity [36]: 8.1%
Activity [37]: Non-Toxic
Ratio [38]: 11.13
Activity [39]: 1.97%
Drug uptake [40]: 3.12 % ID/g
Drug uptake [41]: 1.86 % ID/g
Survival [42]: 30 days
inhibition (INH) [43]: 70%
remaining at 24 h [44]: 85.6%
Drug uptake [45]: Active
remaining at 24 h [46]: 94.7%
Activity [47]: 61.9%
Drug uptake [48]: 4.7%
